Reference: article PMC6368574, “Probing the Inhibition of Microtubule Affinity Regulating Kinase 4 by N-Substituted Acridones” (Scientific Reports, 2019)
Where two headings read alike, the source gives them in different places.

Experiments:
[1] = target: T1, recombinant MARK4 (Homo sapiens, UniProt Q96L34); experiment: ATPase enzyme inhibition assay (Malachite Green); assay type: biochemical
T1 construct: made in house; host or cells: bacterial cells (Luria-Bertani broth, IPTG induction)
T1 sequence (Q96L34 1-752): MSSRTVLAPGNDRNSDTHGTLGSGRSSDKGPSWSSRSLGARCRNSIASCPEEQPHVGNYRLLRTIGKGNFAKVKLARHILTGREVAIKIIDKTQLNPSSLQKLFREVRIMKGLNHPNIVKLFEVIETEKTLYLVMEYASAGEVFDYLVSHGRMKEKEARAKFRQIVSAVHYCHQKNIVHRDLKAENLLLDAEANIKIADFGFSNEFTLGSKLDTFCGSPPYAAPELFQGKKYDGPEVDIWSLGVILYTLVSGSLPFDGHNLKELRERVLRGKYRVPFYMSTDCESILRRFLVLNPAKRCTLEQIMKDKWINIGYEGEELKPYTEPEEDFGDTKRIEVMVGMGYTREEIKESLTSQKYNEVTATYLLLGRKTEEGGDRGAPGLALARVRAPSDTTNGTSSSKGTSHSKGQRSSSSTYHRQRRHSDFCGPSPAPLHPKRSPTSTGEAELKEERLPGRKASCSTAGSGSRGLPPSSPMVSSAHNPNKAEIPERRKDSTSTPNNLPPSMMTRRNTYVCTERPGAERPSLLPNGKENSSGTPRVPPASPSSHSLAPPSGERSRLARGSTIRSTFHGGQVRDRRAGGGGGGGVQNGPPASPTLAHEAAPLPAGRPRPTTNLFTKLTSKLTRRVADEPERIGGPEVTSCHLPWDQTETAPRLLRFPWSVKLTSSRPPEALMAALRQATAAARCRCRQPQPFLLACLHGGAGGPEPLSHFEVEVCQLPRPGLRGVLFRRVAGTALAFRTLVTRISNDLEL
Experimental: To evaluate the inhibition activity of synthesized acridone derivatives against recombinant MARK4, ATPase enzyme inhibition assay was performed (Table S3). […] Our studies were initiated by replacing the ester group of 5 with sterically and electronically diverse amines affording the corresponding amides 7a–j, in order to establish favorable interactions with residues Ala135, Val70, Asp196 and/or Glu182. […] In this case, the docking studies indicate a better fit of 7h compared with 7g in the active site of MARK4 with a binding energy of −9.5 kcal/mol and a stronger predicted hydrogen bond with Ala135 (3.06 Å for 7h, 3.19 Å for 7g).
Enzyme activity of MARK4 was evaluated with the help of standard Malachite Green (Biomol Green reagent, Enzo Life Sciences) microtitre-plate assay as described earlier. Estimated amount of MARK4 (200 ng) and 20 µM ATP as a substrate were incubated for 10–15 min at 25 °C with increasing concentrations (0–20 µM) of synthesized acridone derivatives, in 20 mM Tris buffer, pH 8.0. Reaction was terminated by the adding 100 µl of Biomol Green reagent and absorbance of final reaction products was recorded at 620 nm in a multiplate ELSIA reader (BioRad). In order to quantify the hydrolyzed phosphate, inorganic phosphate standard curve were prepared from the phosphate standard solutions as supplied by the manufacturer (Biomol Green reagent, Enzo Life Sciences). All data points represent triplicate measurements from at least three independent experiments.

[2] = test system: MCF-7 cells; experiment: MTT cell viability assay, MCF-7; assay type: cell-based; conditions: Homo sapiens, MCF7
Experimental: (§1) Initially, all synthesized acridone derivatives were evaluated for their cytotoxicity potential on MCF-7, HepG2 and HEK293 cell lines by MTT assay. These synthesized acridone derivatives were screened in the concentration range of 0–200 µM, for 24 and 48 h. […] It was also interesting that in the studied […] concentration range these compounds don’t show considerable cytotoxicity towards HEK293 cell lines. […] Thus, compounds 5, 7b, 7d, 7f and 7h were taken for further cell based studies such as apoptosis and reactive oxygen species (ROS) production.
(§2) To study the effect of synthesized acridone derivatives on cell viability and proliferation, a standard MTT method was carried out. Cells were plated (8000–9000/well) in a 96-well plate and incubated overnight. On the next day, cells were treated with increasing concentrations (0.1–80 μM) of synthesized acridone derivatives in a final volume of 200 µl for 48 h at 37 °C in a humidified chamber. At the end of treatment time point, 20 µl of MTT solution (from 5 mg/ml stock solution in phosphate buffer saline, pH 7.4) was added to each well and incubated further for 4–5 h at 37 °C in the CO2 incubator. After stipulated time the supernatant was aspirated and the colored formazan crystal produced as a result of MTT reduction was dissolved in 100 µl of DMSO. The absorbance (A) of colored product was then measured at 570 nm on a multiplate ELISA reader (BioRad). The percentage of viable cells was calculated and used to estimate the IC50 (50% inhibitory concentration) values for each acridone derivative. For cell proliferation studies paclitaxel has been taken as positive control.

[3] = test system: HepG2 cells; experiment: MTT cell viability assay, HepG2; assay type: cell-based; conditions: Homo sapiens, Table S2
Experimental: as §1, §2

[4] = test system: phosphorylation of tau protein in SH-SY5Y cells; experiment: Tau-phosphorylation assay by flow cytometry; assay type: cell-based, human; conditions: IC50 dose, 24 h
From the text: To see the effect of most potential lead molecules (compound 7b, 7d and 7f) on the substrate protein (tau protein) of MARK4 enzyme inhibition activity studies are extended to a cell-based tau-phosphorylation assay. Cells were allowed to grow in the presence of IC50 dose of compound 7b, 7d and 7f for 24 hrs. Following the treatment, the phosphorylation of tau has been assessed with the help of flow cytometry.
To study the effect of selected lead molecules on the phosphorylation of tau protein (a substrate of MARK4) the SH-SY5Y cells were treated with IC50 dose of compound 7b, 7d and 7 f for 24 h and subjected to FACS based analysis as per our previously published protocols[17],[50].

[5] = ATPase inhibition, 20 µM ATP, read-out: IC50 against MARK4
[6] = MTT, read-out: IC50 for MCF-7 cells
[7] = Table 1, from enzyme inhibition, read-out: IC50, (µM), MARK4
[8] = Table 1, from MTT, read-out: IC50, (µM), MCF-7

For `COC(=O)Cn1c2ccccc2c(=O)c2cc(C)ccc21` [Compound 5, Methyl 2-(2-methyl-9-oxoacridin-10(9H)-yl)acetate], the IC50 [1, 5] was 14.1 ± 1.02 µM, the IC50 [2, 6] was 9.4 ± 1 µM and the IC50 [3] was 16.4 µM.

`Cc1ccc2c(c1)c(=O)c1ccccc1n2CC(=O)NCc1ccccc1` [Compound 7b, N-benzyl-2-(2-methyl-9-oxoacridin-10(9H)-yl)acetamide] was tested, and the IC50 [1, 7] was 1.8 ± 0.04 µM, the IC50 [2, 8] was 5.2 ± 1.2 µM and the “phosphorylation level of tau protein” value [4] was “decreases the phosphorylation level of tau protein”. For the same compound, the IC50 [3] was 13.6 µM.

In the case of `COc1ccc(CNC(=O)Cn2c3ccccc3c(=O)c3cc(C)ccc32)cc1` [Compound 7d, N-(4-methoxybenzyl)-2-(2-methyl-9-oxoacridin-10(9H)-yl)acetamide], the IC50 [1, 7] is reported as 2.2 ± 0.05 µM, the IC50 [2, 8] is reported as 6.3 ± 1.2 µM and the “phosphorylation level of tau protein” value [4] is reported as “decreases the phosphorylation level of tau protein”. It also gave an IC50 [3] of 15.1 µM.

In the case of `COc1ccccc1NC(=O)Cn1c2ccccc2c(=O)c2cc(C)ccc21` [Compound 7h, N-(2-methoxyphenyl)-2-(2-methyl-9-oxoacridin-10(9H)-yl)acetamide], the IC50 [1, 5] is reported as 12.1 ± 1.1 µM, the IC50 [2, 6] is reported as 7.2 ± 1.33 µM and the IC50 [3] is reported as 19 µM.

In the case of `Cc1ccc(NC(=O)Cn2c3ccccc3c(=O)c3cc(C)ccc32)cc1` [Compound 7f, 2-(2-Methyl-9-oxoacridin-10(9H)-yl)-N-(p-tolyl)acetamide], the IC50 [1, 7] is reported as 4.5 ± 0.52 µM, the IC50 [2, 8] is reported as 5.8 ± 1.4 µM and the “phosphorylation level of tau protein” value [4] is reported as “decreases the phosphorylation level of tau protein”. For the same compound, the IC50 [3] was 15.2 µM.
